Like-named read-outs stand apart in the source and are kept apart here.
Tests used:
[1] = Iron excretion (urine and stool) by hypertransfused iron-overloaded rats; assay type: in vivo, Sprague-Dawley rats; conditions: for Iron excreted, GROSS Stool / Iron excreted, GROSS Urine / Iron excreted, GROSS Stool, per μmole / Iron excreted, GROSS Urine, per μmole / Iron excreted, NET Stool, per μmole / Iron excreted, NET TOTAL, per μmole / Iron excreted, NET Urine, per μmole / Iron excreted, NET Stool / Iron excreted, NET Urine: 100 mg/kg; for Iron excreted, GROSS Stool, per μmole / Iron excreted, GROSS Urine, per μmole / Iron excreted, NET Stool, per μmole / Iron excreted, NET TOTAL, per μmole / Iron excreted, NET Urine, per μmole: normalized to molar dose; for circulation time relative to DFO: intraperitoneal, inferred from increased urinary iron excretion; for absorption and cleavage after oral administration: inferred from net iron excretion; for Iron excreted, NET Stool / Iron excreted, NET Urine: gross minus background
Procedure: In this model, heat-damaged rat erythrocytes are transfused intraperitoneally (i.p.) on a daily basis.
Deferoxamine mesylate (DFO:Desferal) was obtained from the Ciba Pharmaceutical Company (Summit, N.J.) as a lyophilized powder. For administration to the hypertransfused rats, it was dissolved in physiological saline at a concentration of 10 mg/ml.
A homogeneous solution of acylated derivative was obtained by dissolving the drugs in propylene glycol at a concentration of 30 mg/ml.
Sprague-Dawley rats (60-80 g; Taconic Farms, Germantown, N.Y. (were iron overloaded via daily (5 days/week) intraperitoneal injections of heat-damaged rat erythrocytes. The red blood cells for infusion were purchased from Hilltop Lab Animals, Inc. (Scottsdale, Pa.). They were obtained from retired breeders, the donor animals being exsanguinated via cardiac puncture under CO2 anesthesia. The blood drawn into acid-citrate-dextrose containing gentamicin sulfate (25 g/ml) and shipped on wet ice by overnight express to the testing laboratory. Upon arrival the blood was stored at 4° C. for up to 7 days. Prior to infusion the red cells were slightly damaged by heating at 50° C. for 15 minutes.
The animals were placed on a low iron diet (>10 μg of Fe/g) for one week prior to screening. […] During screening the animals were placed in individual metabolic cages and urine and stool were collected daily. The daily transfusion of heat-damaged red cells was continued throughout drug testing and during intervals of rest between drug evaluations. The compounds were administered either by gavage (orally) or by intraperitoneal injection 4 to 8 hours after the animals were transfused. The dose of each drug was 100 mg/kg/day for 5 days. Urine and stool samples were collected approximately 24 hours after drug administration. They were placed in crucibles, dried at 110° C. and then ashed at 550° C. overnight. Following dissolution of the ash in 3N HCl, the iron content of the samples was determined by atomic absorption spectroscopy.
The iron-overloaded rats were divided into groups of six. Before testing any of the new compounds both positive and negative controls were evaluated. Baseline excretion of iron in the urine and stool of this series of hypertransfused rats was determined in the absence of drug administration (negative control). As a positive control, another group of six animals was given DFO intraperitoneally at a dose of 100 mg/kg (153 micromoles/kg). […] All of the drugs were evaluated both orally and intraperitoneally. The intraperitoneal effect was used to assess bioavailability.
In the prodrugs, where the hydroxamic acid moieties (iron binding sites) of DFO were blocked, effectiveness upon parenteral administration would indicate that the rat is able to metabolize the prodrug to the active species. Failure to be effective orally could then be attributed to lack of absorption. […] In order to obtain an estimate of the relative iron-chelating potency within the series, the amount of iron excreted in response to the acylated derivatives was normalized to correspond to the molar equivalent of 100 mg/kg DFO.

[2] = Solubility in water and ordinary organic solvents; assay type: physicochemical; conditions: in words
[3] = cited from earlier work
[4] = Intraperitoneal LD50 in Swiss-Webster mice; conditions: for LD50: mouse, in vivo, ip
[5] = ip, 100 mg/kg, DFO (historic), n=54

Row | Structure (SMILES) | Iron excreted, GROSS Stool ([1]; ip, acylated derivatives) [µg/kg/day] | Iron excreted, GROSS Urine ([1]; ip, acylated derivatives) [µg/kg/day] | Iron excreted, GROSS Stool, per μmole ([1]; ip) [µg/kg/day/µmol] | Iron excreted, GROSS Urine, per μmole ([1]; ip) [µg/kg/day/µmol] | Iron excreted, NET Stool, per μmole ([1]; ip) [µg/kg/day/µmol] | Iron excreted, NET TOTAL, per μmole ([1]; ip) [µg/kg/day/µmol] | Iron excreted, NET Urine, per μmole ([1]; ip) [µg/kg/day/µmol] | Iron excreted, GROSS Stool ([1]; po) [µg/kg/day] | Iron excreted, GROSS Urine ([1]; po) [µg/kg/day] | Iron excreted, GROSS Stool, per μmole ([1]; po) [µg/kg/day/µmol] | Iron excreted, GROSS Urine, per μmole ([1]; po) [µg/kg/day/µmol] | Iron excreted, NET Stool, per μmole ([1]; po) [µg/kg/day/µmol] | Iron excreted, NET TOTAL, per μmole ([1]; po) [µg/kg/day/µmol] | Iron excreted, NET Urine, per μmole ([1]; po) [µg/kg/day/µmol] | circulation time relative to DFO [1] | absorption and cleavage after oral administration ([1]; oral) | other results
1 | CCCCCCCC(=O)ON(CCCCCNC(=O)CCC(=O)N(CCCCCNC(=O)CCC(=O)N(CCCCCN(C(C)=O)C(=O)CCCCCCC)OC(=O)CCCCCCC)OC(=O)CCCCCCC)C(C)=O [N-acetyl-N-octanoyl-O,O,O-trioctanoyldeferoxamine] | – | – | – | – | – | – | – | – | – | – | – | – | – | – | – | – | increase of absorption on adding an N-acyl group ([1]; oral, vs N-acetyl-O,O,O-trioctanoyldeferoxamine, earlier unpublished data): about 50%
2 | CCCCCCCC(=O)NCCCCCN(O)C(=O)CCC(=O)NCCCCCN(O)C(=O)CCC(=O)NCCCCCN(O)C(C)=O [N-octanoyl-O,O,O-trihydrogendeferoxamine] | – | – | – | – | – | – | – | – | – | – | – | – | – | – | – | – | solubility in water and ordinary organic solvents [2]: sparingly soluble
3 | CCCCCCCCCCCCCC(=O)NCCCCCN(OC(=O)CC)C(=O)CCC(=O)NCCCCCN(OC(=O)CC)C(=O)CCC(=O)NCCCCCN(OC(=O)CC)C(C)=O [MDP3, N-Myristoyl-O,O,O-tripropionyl deferoxamine] | 434 | 134 | 4.06 | 1.25 | 1.88 | 2.62 | 0.74 | 551 | 88 | 5.15 | 0.82 | 2.97 | 3.28 | 0.31 | – | – | increase of potency (absorption) on lengthening N-terminal amide from 3 to 14 carbons ([1]; oral, MDP3 vs PDP3): two-thirds
4 | CCCC(=O)NCCCCCN(OC(=O)CCC)C(=O)CCC(=O)NCCCCCN(OC(=O)CCC)C(=O)CCC(=O)NCCCCCN(OC(=O)CCC)C(C)=O [BDB3, N-Butyroyl-O,O,O-tributyryl deferoxamine] | 875 | 174 | 7.35 | 1.46 | 5.17 | 6.12 | 0.95 | 507 | 91 | 4.26 | 0.76 | 2.08 | 2.33 | 0.25 | circulate for a longer period of time than DFO | efficiently absorbed and subsequently cleaved | –
5 | CC(=O)N(O)CCCCCNC(=O)CCC(=O)N(O)CCCCCNC(=O)CCC(=O)N(O)CCCCCN [DFO, N'-[5-[[4-[[-5-(acetylhydroxamino)pentyl]amino]-1,4-dioxobutyl]hydroxyamino]pentyl]-N-(5-aminopentyl)-N-hydroxybutanediamide, reference compound] | – | – | 5.60 | 1.18 | 3.42 | 4.09 | 0.67 | 398 | 98 | 2.60 | 0.64 | 0.03 | 0.06 | 0.03 | – | – | Iron excreted, NET Stool ([1]; ip, DFO (historic)): 465 µg/kg/day; Iron excreted, NET Urine ([1]; ip, DFO (historic)): 87 µg/kg/day; Iron excreted, NET Stool ([1]; po): 6 µg/kg/day; Iron excreted, NET Urine ([1]; po): 5 µg/kg/day; Iron excreted, GROSS Stool [3, 5]: 857 µg/kg/day; Iron excreted, GROSS Urine [3, 5]: 180 µg/kg/day; effectiveness of oral relative to parenteral administration ([3]; oral vs parenteral, historical data): less than 10%; LD50 [4]: 800 mg/kg
6 | CCC(=O)NCCCCCN(OC(=O)CC)C(=O)CCC(=O)NCCCCCN(OC(=O)CC)C(=O)CCC(=O)NCCCCCN(OC(=O)CC)C(C)=O [PDP3, N-Propionyl-O,O,O-tripropionyl deferoxamine] | 933 | 179 | 7.29 | 1.40 | 5.11 | 6.00 | 0.89 | 496 | 99 | 3.88 | 0.77 | 1.70 | 1.96 | 0.26 | circulate for a longer period of time than DFO | efficiently absorbed and subsequently cleaved | –
7 | CCCCC(=O)NCCCCCN(OC(=O)CCCC)C(=O)CCC(=O)NCCCCCN(OC(=O)CCCC)C(=O)CCC(=O)NCCCCCN(OC(=O)CCCC)C(C)=O [VDV3, N-Valeroyl-O,O,O-trivaleroyl deferoxamine] | 966 | 184 | 8.63 | 1.64 | 6.45 | 7.58 | 1.13 | 599 | 133 | 5.35 | 1.19 | 3.17 | 3.85 | 0.68 | circulate for a longer period of time than DFO | efficiently absorbed and subsequently cleaved | relative activity among derivatives tested ([1]; in words): most active derivative tested; iron excretion relative to oral DFO ([1]; oral, vs DFO given orally): more than 60 times; systemic toxicity ([4]; in words): lack of systemic toxicity; LD50 [4]: 800 mg/kg
